Where two headings read alike, the source gives them in different places.
Key:
[1] = Description: Female, athymic nude mice (aged 6-8 weeks) were randomized to one of 12 study arms (n=3 per arm) (Table 16) and weighed prior to dosing. Mice were dosed via oral gavage either once daily (QD), or bi-daily (BID) for five days. […] The vehicle for PF-06952229 (PF) was 10% DMSO, 40% PEG300, 5% tween-80, 45% saline. For the vehicle alone group in this study, the PF-06952229 vehicle was used. At the end of each day for 10 days, mice were weighed, and symptoms of toxicity (if present) were recorded. A qualitative determination of overall toxicity was made based on the number and severity of symptoms for each cohort. The safety margin was determined at the end of day 10 based on the following equation: (maximum tolerated dose)/(minimum effective dose).
[2] = test system: TGF-beta induced SMAD signaling; experiment: RDSR (RD SMAD reporter) Cellular Reporter Assay; type: cell-based; settings: Homo sapiens, 200 pg/ml rhTGF-beta1, 24 h
Method in brief: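 Human rhabdomyosarcoma RD cells stably carrying an SBE-driven luc2P luciferase reporter. Inhibition of SMAD signaling was quantified from ONE-Glo luminescence.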

[3] = test system: TGF-β1 mediated alpha-SMA expression in primary human bronchial fibroblasts derived from IPF patients; experiment: Fibroblast to Myofibroblast Transformation (FMT) assay
Description: To test the ability of compounds of the invention to inhibit the TGF-β1 dependent transition of fibroblasts to myofibroblasts in a relevant disease model of IPF, a study was carried out using an FMT assay employing lung fibroblasts from IPF patients. In this model the transition of fibroblasts to myofibroblasts is determined by the expression of the biomarker alpha smooth muscle actin (SMA).
Each drug concentration condition was evaluated in biological duplicates. One hour after compound addition, cells were stimulated with 1.25 ng/ml of TGF-01 and cultured for 72 hours thereafter. At the end of 72 hours cells were fixed using formaldehyde. The results were generated using high content imaging after staining cells using the nuclear stain DAPI as well as evaluation of the expression of alpha SMA. […] As a negative control 0.1% DMSO was used matching the DMSO concentration in treated wells.

[4] = molecular target: ALK-5 (Homo sapiens (Human), UniProt P36897); experiment: LanthaScreen Eu Kinase Binding Assay, ALK-5; settings: for IC50: read-out: Kinase Inhibition: ALK5 IC50
Method in brief: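 TR-FRET binding assay: compound displaces an ATP-site-directed Alexa Fluor tracer from kinase detected by Eu-labelled anti-tag antibody, lowering FRET. 10-point, 3-fold serial dilutions, 60 min incubation at room temperature, read without development step. Dose-response curves fitted.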

[5] = test system: phospho-SMAD2 (Ser 465/467) in A549 xenograft; experiment: A549 xenograft study, tumor phospho SMAD2; type: in vivo, mouse; settings: for phospho SMAD2 levels in tumor (normalized to GAPDH): 10, 50, 75, 100 mg/Kg; for inhibition at 10 mg/kg / inhibition at 50 mg/kg / inhibition at 75 mg/kg / inhibition at 100 mg/kg: Mus musculus, A549, oral gavage, 3 hours after administration, read-out: Percent of p-SMAD2 inhibition compared to vehicle control
From the text: To test compounds for in vivo on-target activity (ALK5/TGF-βR1 inhibition), a study was completed using an A549 murine xenograft model. This model was utilized since an ALK5 inhibitor is expected to reduce the amount of the key TGF-β signaling molecule phosphoSMAD2 in the A549 xenograft cells. The TGF-β mediated phosphorylation in A549 cells takes place at amino acid residue four hundred and sixty-five and four hundred and sixty-seven (both are serine residues).
Eight-week old, female athymic nude mice (Charles River) were injected with approximately four million A549 cells (ATCC, CCL-185). The cells employed were harvested and resuspended in plain RPMI media (no phenol red added) and matrigel (Fisher Scientific) at a one to one ratio. Injection comprised a two-hundred microliter sample injected into the right hind flank of each mouse. Resulting tumors were measured every three days by caliper and as tumors reached an average of one hundred and thirty millimeters cubed, mice were randomized in groups of three.
All compounds were resuspended in 1-Methyl-2-pyrrolidinone (10%) plus 20% Solutol in water (90%). Galunisertib was included as a positive control and given at seventy-five milligram per kilogram to three mice. The drug suspensions were sonicated for fifteen minutes to generate a fine particle suspension before being administered to a subject. Mice were dosed (per oral gavage) at dose levels of one hundred mg/Kg, seventy-five mg/Kg, fifty mg/Kg and ten mg/Kg with three mice in each group. A vehicle control group with three mice was used to establish the baseline level of phospho SMAD2 in the tumor xenograft. Three hours after drug administration, tumors were harvested and stored at negative eighty degrees Celsius until further processing. The phospho SMAD2 levels were determined using the BioPlex Pro anti phospho-SMAD2 (Ser 465/467) beads from Biorad and this signal was normalized using GAPDH levels from each sample (Milliplex MAP GAPDH beads, Sigma/Millipore). Tumors were processed according to kit instructions and beads analyzed using the MagPix instrument by Luminex.

[6] = BID; in animal studies; cited from earlier work
[7] = test system: KGN cells; experiment: TGFβ induced proliferation, KGN; type: cell-based, human; settings: TGFβ 1 ng/mL, 6 days, KGN (FoxL2 mutant)
Description: (§1) KGN and COV434 cells were seeded in triplicate in 96 well culture plates and incubated in the presence or absence of TGFβ (1 ng/mL) for 6 or 7 days, respectively. Proliferation was measured by Cell Titer Glo.

[8] = test system: COV434 cells; experiment: TGFβ induced proliferation, COV434; type: cell-based, human; settings: TGFβ 1 ng/mL, 7 days, COV434 (FoxL2 wild-type)
Description: as §1

[9] = test system: bleomycin-induced lung fibrosis; experiment: Bleomycin-induced lung fibrosis study; type: in vivo, mouse
From the text: Fibrosis, the formation of excess connective tissue causing stromal hardening and scar formation is a hallmark of cancer. Up to 20% of cancers are linked to chronic, inflammation-related fibrosis, including hepatocellular, gastric, esophageal, head and neck, colon, pancreatic, cervix, and vulvar cancers. The contribution of fibrosis for early cancer development remains unclear; however, in some advanced solid tumors it is believed that fibrotic tissues act like a barrier, preventing therapeutic agents like chemotherapy or biologics from penetrating the tumor tissue. Additionally, strong fibrotic tissue is thought to contribute to excluding immune cells from entering the tumor core, creating immune excluded or immune desert phenotypes. To evaluate the anti-fibrotic properties of Ex-11, a prophylactic model of bleomycin-induced lung fibrosis in male C57BL/6 mice was utilized, and various endpoints evaluated.
All mice in this study were 8-week-old male C57BL/6 mice purchased from Taconic. On Day −2 prior to bleomycin administration, all animals were weighed and distributed into groups with 10 mice each (Table 18) such that each group of animals contained animals of similar body weights.
On day 0, animals were treated with 1.5 U/kg bleomycin (Blenoxane catalog number NDC 61703-323-22, Hospira Pharmaceutical) intratracheally, except Group 1, which was administered normal saline via oropharyngeal route to serve as the healthy naïve control group. Prophylactic treatment was administered from one day prior to bleomycin administration to day 21 post bleomycin administration. On Day 21, only the morning dose was administered. Animals were harvested on day 21 and lung weights were measured. Body weights of all mice was recorded at least three times a week beginning on Day −2 and ending on the day of harvest, Day 21. Pirfenidone was used as positive control compound, as it is an FDA-approved drug for the treatment of idiopathic pulmonary fibrosis (IPF) in humans. All compounds were prepared in 10% Tween-20 in water; a homogenous suspension was formulated using a magnetic stir bar.
At the end of the study, total lung tissues were weighed and fixed for histological examination, which was conducted by a trained pathologist blinded to the treatment groups. Specifically, whole lungs from each mouse were paraffin-embedded in a single block. Two slides from each block were sectioned to the depth of the mainstem bronchi (near the center of each lobe) and stained with either hematoxylin and eosin (H&E) or Masson's trichrome (MT). Glass slides were evaluated using light microscopy by a board-certified veterinary pathologist. Lung sections were scored according to the methods described below, evaluating five randomly chosen fields in each tissue. Fixed lungs were sectioned, and consecutive tissue sections were stained with H&E or MT. Various pathological scoring parameters were used to determine the average Ashcroft score, as well as average inflammation and collagen deposition indicating fibrosis.
Parameter of scoring formalin fixed lung sections:
Modified Ashcroft Score: H&E-stained lung sections were scored according to the modified Ashcroft scale. Scores for five representative 200× microscopic fields per sample were averaged to obtain a mean score for each animal. […]

[10] = control compounds, read-out: RDSR reporter activity
[11] = read-out: RD-SMAD reporter activity

Sequence of ALK-5 (P36897 34-503): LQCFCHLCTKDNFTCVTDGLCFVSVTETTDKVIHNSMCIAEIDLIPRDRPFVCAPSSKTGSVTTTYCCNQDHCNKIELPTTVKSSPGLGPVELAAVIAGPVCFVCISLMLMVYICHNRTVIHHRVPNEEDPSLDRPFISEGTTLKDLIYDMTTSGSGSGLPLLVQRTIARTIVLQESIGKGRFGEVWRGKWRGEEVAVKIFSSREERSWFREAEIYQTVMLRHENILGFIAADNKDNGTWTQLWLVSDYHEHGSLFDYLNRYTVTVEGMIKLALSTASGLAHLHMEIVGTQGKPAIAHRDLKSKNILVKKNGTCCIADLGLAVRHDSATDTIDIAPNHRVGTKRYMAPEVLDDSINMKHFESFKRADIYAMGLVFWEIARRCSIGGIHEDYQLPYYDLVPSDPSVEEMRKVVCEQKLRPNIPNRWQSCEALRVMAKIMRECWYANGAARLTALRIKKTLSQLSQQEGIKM

Row | Compound | LogM IC50 αSMA ([3]; donor IPF05) [LogM] | Max PIN (%) ([3]; donor IPF05) | LogM IC50 αSMA ([3]; donor IPF06) [LogM] | Max PIN (%) ([3]; donor IPF06) | LogM IC50 αSMA ([3]; donor IPF08) [LogM] | Max PIN (%) ([3]; donor IPF08) | Kinase Selectivity: ALK2 IC50/ ALK5 IC50 [4] | IC50 [4] [nM] | IC50 [2, 11] [nM] | also measured
1 | Cc1cccc(-c2[nH]c(CNc3ccccc3F)nc2-c2ccc3ncnn3c2)n1 [Vactosertib, reference compound] | −7.4 | 32.7 | −7.0 | 112.1 | −7.1 | 104.0 | – | – | – | safety margin (maximum tolerated dose)/(minimum effective dose) ([1]; female, mouse, in vivo, 10 days): 3.75-6 fold; IC50 [2, 10]: ~7.9 nM
2 | Cc1cccc2c(Nc3ccnc(Nc4ccc(N5CCOCC5)c(Cl)c4)n3)cnnc12 [EX-12, N2-(3-chloro-4-morpholino-phenyl)-N4-(8-methyl-cinnolin-4-yl)-pyrimidine-2,4-diamine] | – | – | – | – | – | – | (++) (10<ALK2/ALK5<100=[++]) | < 10 | < 100 | observed level of p-SMAD2 as percent of vehicle-only group ([5]; 100 mg/Kg): 45.5%; phospho SMAD2 levels in tumor (normalized to GAPDH) [5]: reduced the phopho SMAD2 levels (p-SMAD2) in a dose dependent fashion; inhibition at 10 mg/kg [5]: 19.9%; inhibition at 50 mg/kg [5]: 35.8%; inhibition at 75 mg/kg [5]: 40.1%; inhibition at 100 mg/kg ([5]; 100 mg/Kg): 55.5%
3 | CC(C)c1cnc(-c2cc(Cl)ccc2F)cc1Nc1ccncc1C(=O)NC(CO)CO [PF-06952229] | – | – | – | – | – | – | – | – | – | tolerated dose ([1]; BID): 50 mg/kg; dose at which mice experienced DLT ([1]; mouse, in vivo): ≥ 150 mg/kg; safety margin (maximum tolerated dose)/(minimum effective dose) ([1]; mouse, in vivo): ~1.7 fold; minimum effective dose [6]: 30 mg/kg
4 | Cc1cccc(-c2nn3c(c2-c2ccnc4ccc(C(N)=O)cc24)CCC3)n1 [Galunisertib, reference compound] | −5.7 | 100.8 | −5.9 | 104.4 | −5.9 | 99.6 | – | – | – | IC50 [2, 10]: ~365 nM; potentially toxic (>25% loss of nuclei) ([3]; donor IPF06): >−5.5
5 | Cc1cccc2c(Nc3ccnc(Nc4ccc(N5CCOCC5)c(F)c4)n3)cnnc12 [EX-13, N2-(3-fluoro-4-morpholino-phenyl)-N4-(8-methylcinnolin-4-yl)-pyrimidine-2,4-diamine] | – | – | – | – | – | – | (++) (10<ALK2/ALK5<100=[++]) | < 10 | < 100 | phospho SMAD2 levels in tumor (normalized to GAPDH) [5]: reduced the phopho SMAD2 levels (p-SMAD2) in a dose dependent fashion; inhibition at 10 mg/kg [5]: 37.9%; inhibition at 50 mg/kg [5]: 76.3%; inhibition at 75 mg/kg [5]: 76.8%; inhibition at 100 mg/kg ([5]; 100 mg/Kg): 75.7%
6 | COC(=O)c1ccc2c(c1)NC(=O)/C2=C(\Nc1ccc(N(C)C(=O)CN2CCN(C)CC2)cc1)c1ccccc1 [Nintedanib, reference compound] | −6.5 | 92.1 | −6.3 | 86.8 | −6.4 | 88.2 | – | – | – | –
7 | TGFβ: TGFβ cytokine used at 1 ng/mL to stimulate KGN and COV434 cells | – | – | – | – | – | – | – | – | – | proliferation (Cell Titer Glo) [7]: significantly increased; proliferation (Cell Titer Glo) [8]: no change
8 | Cc1ccc(=O)n(-c2ccccc2)c1 [pirfenidone, reference compound] | – | – | – | – | – | – | – | – | – | animals lost during the study ([9]; 100 mg/kg PO BID): Only one animal in the pirfenidone group was lost; total lung weight ([9]; day 21, vs bleomycin/vehicle): significant decrease in lung weight; largest percent change in weight ([9]; group 4, day 9, average): −1.2%
9 | Cc1cccc2c(Nc3ccnc(Nc4cc(F)cc(CN5CCNCC5)c4)n3)cnnc12 [EX-06, N2-(3-fluoro-5-(piperazin-1-ylmethyl)phenyl)-N4-(8-methyl-cinnolin-4-yl)pyrimidine-2,4-diamine] | – | – | – | – | – | – | (+) (≤10=[+]) | < 10 | < 100 | –
10 | Cc1cccc2c(Nc3ccnc(Nc4cc(N5CCOCC5)cc(C(F)(F)F)c4)n3)cnnc12 [EX-39, N4-(8-methylcinnolin-4-yl)-N2-(3-morpholino-5-(trifluoromethyl)phenyl)pyrimidine-2,4-diamine] | – | – | – | – | – | – | (+) (≤10=[+]) | < 10 | 100 to 1000 | –

From patent US11746103B2, “ALK-5 inhibitors and uses thereof” (Sumitomo Pharma Oncology, Inc., priority 2020, dated 2023)
